Data taken from US20250228239A1, “MOLECULES HAVING PESTICIDAL UTILITY, AND INTERMEDIATES, COMPOSITIONS, AND PROCESSES, RELATED THERETO” (priority 2024, published 2025).
Where two headings read alike, the source gives them in different places.

Key:
Assay type in all cases: in vivo
[1] = test system: Beet Armyworm (Spodoptera exigua, LAPHEG); assay: Bioassays on Beet Armyworm (BAW), 128-well diet tray assay; settings: Spodoptera exigua
In short: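 Test molecule was dissolved in 90:10 acetone-water and applied at 50 μg/cm^2 onto artificial diet in eight wells, then dried. Second instar larvae, one to five per well, were added, and trays were kept vented at 25° C. with a 14:10 photoperiod for five to seven days before mortality was recorded.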

[2] = test system: Cabbage Looper (Trichoplusia ni, TRIPNI); assay: Bioassays on Cabbage Looper (CL), 128-well diet tray assay; settings: Trichoplusia ni
In short: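 Each of eight wells receives artificial diet treated at 50 μg/cm^2 with the test molecule, then one to five second-instar larvae. Incubation runs five to seven days at 25° C with a 14:10 light-dark cycle under vented covers. Mortality is scored per well as a percentage and averaged.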

[3] = test system: Yellow Fever Mosquito (Aedes aegypti, AEDSAE); settings: for YFM rating: Table ABC / ABC-DP rating
In short: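 Compounds from 4000 ppm DMSO stocks were diluted in 90:10 water/acetone and dispensed into wells, then infested with about 1-day-old larvae in liver-powder water. Covered plates were held at room temperature for 3 days and each well was scored for mortality against a rating scale; six replicate plates per compound.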

[4] = Beet Armyworm, rating class, read-out: BAW
[5] = Cabbage Looper, rating class, read-out: CL
[6] = Yellow Fever Mosquito, rating class
[7] = Table ABC: Biological Results, species BAW, read-out: BAW
[8] = Table ABC: Biological Results, species CL, read-out: CL
[9] = Table ABC: Biological Results, species YFM
[10] = Beet Armyworm, Table ABC / ABC-DP rating, read-out: BAW rating
[11] = Cabbage Looper, Table ABC / ABC-DP rating, read-out: CL rating

CC(OCC(F)(F)F)C(=O)Nc1c(F)ccc(NC(=O)c2cc(NC(=O)[C@H]3[C@H](c4ccc(F)c(C(F)(F)F)c4)C3(Cl)Cl)ccc2Cl)c1F (stereo partly drawn) [F1747, 2-Chloro-5-((1R,3R)-2,2-dichloro-3-(4-fluoro-3-(trifluoromethyl)phenyl)cyclopropane-1-carboxamido)-N-(2,4-difluoro-3-(2-(2,2,2-trifluoroethoxy)propanamido)phenyl)benzamide]
pest or weed control at 50 µg/cm2 [1, 4]: 50 to 100% | pest or weed control at 50 µg/cm2 [2, 5]: 50 to 100% | YFM [3, 6]: A (80–100)

O=C(Nc1ccc(F)cc1F)c1cc(NC(=O)[C@H]2[C@@H](c3cc(F)cc(Br)c3F)C2(Cl)Cl)ccc1Cl (relative stereo) [F1094, cis-5-(3-(3-Bromo-2,5-difluorophenyl)-2,2-dichlorocyclopropane-1-carboxamido)-2-chloro-N-(2,4-difluorophenyl)benzamide]
pest or weed control at 50 µg/cm2 [1, 7]: 50 to 100% | pest or weed control at 50 µg/cm2 [2, 8]: 50 to 100% | YFM [3, 9]: A (80–100)

O=C(Nc1ccc(F)cc1F)c1cc(NC(=O)[C@H]2[C@H](c3cc(Cl)c(Br)c(Cl)c3)C2(Cl)Cl)ccc1Cl (relative stereo) [F1006, trans-5-(3-(4-Bromo-3,5-dichlorophenyl)-2,2-dichlorocyclopropane-1-carboxamido)-2-chloro-N-(2,4-difluorophenyl)benzamide]
pest or weed control at 50 µg/cm2 [1, 7]: 50 to 100% | pest or weed control at 50 µg/cm2 [2, 8]: 50 to 100% | YFM [3, 9]: A (80–100)

O=C(NCC1CC1)NNC(=O)c1cc(NC(=O)[C@H]2[C@H](c3cc(Cl)cc(Cl)c3)C2(Cl)Cl)ccc1Cl (relative stereo) [F2538, trans-2-(2-Chloro-5-(2,2-dichloro-3-(3,5-dichlorophenyl)cyclopropane-1-carboxamido)benzoyl)-N-(cyclopropylmethyl)hydrazine-1-carboxamide]
pest or weed control at 50 µg/cm2 [1, 10]: 50 to 100% | pest or weed control at 50 µg/cm2 [2, 11]: 50 to 100% | YFM rating ([3]; Yellow Fever Mosquito): A (80–100)

CN(C(=O)c1cc(NC(=O)[C@H]2[C@H](c3ccc(Cl)c(Cl)c3)C2(Cl)Cl)ccc1Cl)N(C)c1ccccc1 [F2544, (1R,3R)-2,2-Dichloro-N-(4-chloro-3-(1,2-dimethyl-2-phenylhydrazine-1-carbonyl)phenyl)-3-(3,4-dichlorophenyl)cyclopropane-1-carboxamide]
pest or weed control at 50 µg/cm2 [1, 10]: 50 to 100% | pest or weed control at 50 µg/cm2 [2, 11]: 50 to 100% | YFM rating ([3]; Yellow Fever Mosquito): A (80–100)

Nc1c(F)ccc(NC(=O)c2cc(NC(=O)[C@H]3[C@H](c4cc(F)c(F)c(Br)c4)C3(Cl)Cl)ccc2Cl)c1F (relative stereo) [F1044, trans-N-(3-Amino-2,4-difluorophenyl)-5-(3-(3-bromo-4,5-difluorophenyl)-2,2-dichlorocyclopropane-1-carboxamido)-2-chlorobenzamide]
pest or weed control at 50 µg/cm2 [1, 7]: 50 to 100% | pest or weed control at 50 µg/cm2 [2, 8]: 50 to 100% | YFM [3, 9]: A (80–100)

O=C(NNCCC(F)(F)F)c1cc(NC(=O)[C@H]2[C@H](c3cc(Cl)cc(Cl)c3)C2(Cl)Cl)ccc1Cl (relative stereo) [F2550, trans-2,2-Dichloro-N-(4-chloro-3-(2-(3,3,3-trifluoropropyl)hydrazine-1-carbonyl)phenyl)-3-(3,5-dichlorophenyl)cyclopropane-1-carboxamide]
pest or weed control at 50 µg/cm2 [1, 10]: 0 to 50% | pest or weed control at 50 µg/cm2 [2, 11]: 50 to 100% | YFM rating ([3]; Yellow Fever Mosquito): B (More than 0 – Less than 80)

Cc1c(Cl)cc(NC(=O)[C@H]2[C@H](c3ccc(F)c(Cl)c3)C2(Cl)Cl)cc1C(=O)Nc1ccc(F)cc1 (relative stereo) [F1189, trans-3-Chloro-5-(2,2-dichloro-3-(3-chloro-4-fluorophenyl)cyclopropane-1-carboxamido)-N-(4-fluorophenyl)-2-methylbenzamide]
pest or weed control at 50 µg/cm2 [1, 7]: 50 to 100% | pest or weed control at 50 µg/cm2 [2, 8]: 50 to 100% | YFM [3, 9]: A (80–100)

CN(NC(=O)c1cc(NC(=O)[C@H]2[C@H](c3cc(Cl)cc(Cl)c3)C2(Cl)Cl)ccc1Cl)C(=O)CC1CC1 (relative stereo) [F2524, trans-2,2-Dichloro-N-(4-chloro-3-(2-(2-cyclopropylacetyl)-2-methylhydrazine-1-carbonyl)phenyl)-3-(3,5-dichlorophenyl)cyclopropane-1-carboxamide]
pest or weed control at 50 µg/cm2 [1, 10]: 50 to 100% | pest or weed control at 50 µg/cm2 [2, 11]: 50 to 100% | YFM rating ([3]; Yellow Fever Mosquito): A (80–100)

O=C(Nc1ccc(F)c(NC(=O)C(F)F)c1F)c1cc(NC(=O)[C@H]2[C@H](c3ccc(F)c(C(F)(F)F)c3)C2(Cl)Cl)ccc1Cl [F1175, 2-Chloro-5-((1R,3R)-2,2-dichloro-3-(4-fluoro-3-(trifluoromethyl)phenyl)cyclopropane-1-carboxamido)-N-(3-(2,2-difluoroacetamido)-2,4-difluorophenyl)benzamide]
pest or weed control at 50 µg/cm2 [1, 7]: 50 to 100% | pest or weed control at 50 µg/cm2 [2, 8]: 50 to 100% | YFM [3, 9]: A (80–100)

O=C(Nc1ccc(F)c(NC(=O)C(Br)CC(F)(F)F)c1F)c1cc(NC(=O)[C@H]2[C@H](c3ccc(F)c(C(F)(F)F)c3)C2(Cl)Cl)ccc1Cl (stereo partly drawn) [F1831, N-(3-(2-Bromo-4,4,4-trifluorobutanamido)-2,4-difluorophenyl)-2-chloro-5-((1R,3R)-2,2-dichloro-3-(4-fluoro-3-(trifluoromethyl)phenyl)cyclopropane-1-carboxamido)benzamide]
pest or weed control at 50 µg/cm2 [1, 10]: 50 to 100% | pest or weed control at 50 µg/cm2 [2, 11]: 50 to 100% | YFM rating ([3]; Yellow Fever Mosquito): A (80–100)

CC(OC(F)(F)F)C(=O)Nc1c(F)ccc(NC(=O)c2cc(NC(=O)[C@H]3[C@H](c4cccc(C(F)(F)F)c4)C3(Cl)Cl)ccc2Cl)c1F (stereo partly drawn) [F1775, 2-Chloro-5-((1R,3R)-2,2-dichloro-3-(3-(trifluoromethyl)phenyl)cyclopropane-1-carboxamido)-N-(2,4-difluoro-3-(2-(trifluoromethoxy)propanamido)phenyl)benzamide]
pest or weed control at 50 µg/cm2 [1, 10]: 50 to 100% | pest or weed control at 50 µg/cm2 [2, 11]: 50 to 100% | YFM rating ([3]; Yellow Fever Mosquito): A (80–100)

O=C(Nc1ccc(F)c(NC(=O)C(F)(F)Br)c1F)c1cc(NC(=O)[C@H]2[C@H](c3ccc(F)c(C(F)(F)F)c3)C2(Cl)Cl)ccc1Cl [F1276, N-(3-(2-Bromo-2,2-difluoroacetamido)-2,4-difluorophenyl)-2-chloro-5-((1R,3R)-2,2-dichloro-3-(4-fluoro-3-(trifluoromethyl)phenyl)cyclopropane-1-carboxamido)benzamide]
pest or weed control at 50 µg/cm2 [1, 7]: 50 to 100% | pest or weed control at 50 µg/cm2 [2, 8]: 50 to 100% | YFM [3, 9]: A (80–100)

O=C(Nc1c(F)ccc(NC(=O)c2cc(NC(=O)[C@H]3[C@H](c4ccc(F)c(C(F)(F)F)c4)C3(Cl)Cl)ccc2Cl)c1F)C(=O)c1ccccc1 [F1298, 2-Chloro-5-((1R,3R)-2,2-dichloro-3-(4-fluoro-3-(trifluoromethyl)phenyl)cyclopropane-1-carboxamido)-N-(2,4-difluoro-3-(2-oxo-2-phenylacetamido)phenyl)benzamide]
pest or weed control at 50 µg/cm2 [1, 7]: 50 to 100% | pest or weed control at 50 µg/cm2 [2, 8]: 50 to 100% | YFM [3, 9]: A (80–100)

CN(C(=O)c1cc(NC(=O)[C@H]2[C@H](c3ccc(F)c(C(F)(F)F)c3)C2(Cl)Cl)ccc1Cl)c1ccc(F)c(NC(=O)COC(F)(F)F)c1F [F1796, 2-Chloro-5-((1R,3R)-2,2-dichloro-3-(4-fluoro-3-(trifluoromethyl)phenyl)cyclopropane-1-carboxamido)-N-(2,4-difluoro-3-(2-(trifluoromethoxy)acetamido)phenyl)-N-methylbenzamide]
pest or weed control at 50 µg/cm2 [1, 10]: 50 to 100% | pest or weed control at 50 µg/cm2 [2, 11]: 50 to 100% | YFM rating ([3]; Yellow Fever Mosquito): A (80–100)

CCC(=O)Nc1c(F)ccc(NC(=O)c2cc(NC(=O)[C@H]3[C@H](c4cccc(C(F)(F)F)c4)C3(Cl)Cl)ccc2Cl)c1F [F1679, 2-Chloro-5-((1R,3R)-2,2-dichloro-3-(3-(trifluoromethyl)phenyl)cyclopropane-1-carboxamido)-N-(2,4-difluoro-3-propionamidophenyl)benzamide]
pest or weed control at 50 µg/cm2 [1, 4]: 50 to 100% | pest or weed control at 50 µg/cm2 [2, 5]: 50 to 100% | YFM [3, 6]: A (80–100)

O=C(Nc1ccc(F)c(I)c1F)c1cc(NC(=O)[C@H]2[C@H](c3ccc(F)c(C(F)(F)F)c3)C2(Cl)Cl)ccc1Cl [F1758, 2-Chloro-5-((1R,3R)-2,2-dichloro-3-(4-fluoro-3-(trifluoromethyl)phenyl)cyclopropane-1-carboxamido)-N-(2,4-difluoro-3-iodophenyl)benzamide]
pest or weed control at 50 µg/cm2 [1, 4]: 50 to 100% | pest or weed control at 50 µg/cm2 [2, 5]: 50 to 100% | YFM [3, 6]: A (80–100)

CCOC(=O)C(F)C(=O)Nc1c(F)ccc(NC(=O)c2cc(NC(=O)[C@H]3[C@H](c4ccc(F)c(C(F)(F)F)c4)C3(Cl)Cl)ccc2Cl)c1F (stereo partly drawn) [F1822, Ethyl 3-((3-(2-chloro-5-((1R,3R)-2,2-dichloro-3-(4-fluoro-3-(trifluoromethyl)phenyl)cyclopropane-1-carboxamido)benzamido)-2,6-difluorophenyl)amino)-2-fluoro-3-oxopropanoate]
pest or weed control at 50 µg/cm2 [1, 10]: 50 to 100% | pest or weed control at 50 µg/cm2 [2, 11]: 50 to 100% | YFM rating ([3]; Yellow Fever Mosquito): A (80–100)

Nc1c(F)ccc(NC(=O)c2cc(NC(=O)[C@H]3[C@H](c4ccc(Cl)c(C(F)F)c4)C3(Cl)Cl)ccc2Cl)c1F (relative stereo) [F1037, trans-N-(3-Amino-2,4-difluorophenyl)-2-chloro-5-(2,2-dichloro-3-(4-chloro-3-(difluoromethyl)phenyl)cyclopropane-1-carboxamido)benzamide]
pest or weed control at 50 µg/cm2 [1, 7]: 50 to 100% | pest or weed control at 50 µg/cm2 [2, 8]: 50 to 100% | YFM [3, 9]: A (80–100)
